Where a name gives a salt, the structure may show the parent alone.

The first assay has as its system NRG1-ERBB4 signaling. In words: Nrg1-ERBB4-PIK3R1 split TEV co-culture compound screen of the NIH Clinical Collection. Type of assay: cell-based, human. The note with it: NIH Clinical Collection NCC-003 raw data; compounds ranked by Z-score; 'flagged' given instead of a Z-score. The text has this: For our HTS‐compatible split TEV assay approach, human full‐length ERBB4‐Cyt1 was fused to the NTEV fragment, a TEV protease cleavage site (tevS) and the artificial co‐transcriptional activator Gal4‐VP16 (ERBB4‐NTEV‐tevS‐GV); human PIK3R1 was fused to the CTEV fragment (PIK3R1‐CTEV) (Fig 1A). Upon ERBB4 activation, PIK3R1 is recruited to the receptor resulting in a reconstituted protease activity that cleaves off GV. In turn, released GV translocates to the nucleus and binds to upstream activating sequences (UAS) to activate the transcription of a firefly luciferase reporter gene (Fig 1A). A constitutively expressed Renilla luciferase driven under the control of the human thymidine kinase (TK) promoter was used as control to address off‐target effects related to toxicity.
For small molecule screening, the NIH‐NCC Clinical Collection library (sets NCC‐003 and NCC‐201) was used containing 727 small molecules that are FDA‐approved and have a history in clinical applications (www.nihclinicalcollection.com). A Hamilton Labstar robot connected to 37 and 4°C incubators for cell incubation and compound storage and application (Cytomat automated incubator, ThermoScientific) and to a luciferase reader (Berthold Technologies) was used to automatically perform the screening. […] Each batch was screened three times.
For one 96‐well plate, 4 × 10^6 PC12 cells were harvested and diluted in 5 ml assay medium (phenol red‐free DMEM (low glucose, Life Technologies), 10% FCS, 5% HS, no antibiotics). The split TEV assay plasmids (2 μg pcDNA3_ERBB4‐NTEV‐tevS‐GV‐2xHA, 2 μg pTag4C_PIK3R1‐CTEV‐2xHA, 2 μg p5xUAS_firefly luciferase, 2 μg pTK_Renilla luciferase, and 0.5 μg pECFP‐C1 for examining transfection efficiency) were diluted in 2.5 ml Opti‐MEM (Life Technologies) and vortexed. In parallel, 20 μl of the transfection reagent Lipofectamine 2000 was diluted in 2.5 ml Opti‐MEM and vortexed.
For plating of one 96‐well plate, 10 ml suspension, containing the 4 × 10^6 in solution‐transfected cells, was placed in the bubble paddle reservoir of the Hamilton Cellstar robot. 100 μl was seeded per 96‐well using the 96‐tip pipetting head. The homogeneity of the cell suspension was guaranteed over time by mild stirring using the paddling device inside the reservoir. For five plates each, 50 ml of additional cell suspension was used to allow for losses of inaccessible volume.
The cells were allowed to express the plasmids for 24 h before compounds were added. Proper expression and transfection efficiency were verified by ECFP expression on a clear control plate. The compounds were applied in a final concentration of 10 μM using DMSO as diluent. […] Thirty minutes later, 10,000 Nrg1‐expressing PC12 cells in 100 μl assay medium were seeded on top. 24 h after addition of the compounds, the cells were lysed using 40 μl Passive Lysis buffer (Promega) and subjected to a Dual Luciferase Assay (Promega) according to the manufacturer's instructions. The data were analyzed in R Bioconductor using the package cellHTS2 (http://www.bioconductor.org/packages/devel/bioc/html/cellHTS2.html), assessed using the z‐score, and visualized using the program Mondrian (http://stats.math.uni-augsburg.de/mondrian/).
On to `O=C1Nc2ccc(Cl)cc2[C@@](C#CC2CC2)(C(F)(F)F)O1` [EFAVIRENZ], for which the Z-SCORE result is “flagged”.

`Cl.O=C1[C@H]2CCCC[C@H]2C(=O)N1CCCCN1CCN(c2nsc3ccccc23)CC1` [PEROSPIRONE HCl] showed a Z-SCORE of -1.42.

The assay is the same for the next values; noted with them: compound screen of the NIH Clinical Collection, sheet raw data NCC-003; compounds ranked by Z-score.
Regarding `C/C=C1\[C@H]2C=C(C)C[C@]1(N)c1ccc(=O)[nH]c1C2` [HUPERZINE A], the Z-SCORE is listed as -0.3.

With `CC=CC(=O)N(CC)c1ccccc1C` [483-63-6], the Z-SCORE is given as -0.8.

The molecule `Oc1ccc2c3c1O[C@H]1c4[nH]c5ccccc5c4C[C@@]4(O)[C@@H](C2)N(CC2CC2)CC[C@]314` [Naltrindole] came in with a Z-SCORE of -0.41.

Molecule `CNC(=O)Oc1ccc2c(c1)[C@]1(C)CCN(C)[C@@H]1N2C` [Physostigmine] had a Z-SCORE of 0.16.

`COCCOC(=O)C1=C(C)NC(C)=C(C(=O)OC(C)C)C1c1cccc([N+](=O)[O-])c1` (stereo not shown) [NIMODIPINE] returned a Z-SCORE of -0.83.

Regarding `CCCN[C@H]1CCc2nc(N)sc2C1` [Pramipexole], the Z-SCORE is given as -0.29.

`CCN(C(C)=O)c1cccc(-c2ccnc3c(C#N)cnn23)c1` [Zaleplon] yielded a Z-SCORE of -0.02.

For `C[C@@H]1O[C@@H](OC[C@H]2O[C@@H](Oc3c(-c4ccc(O)c(O)c4)oc4cc(O)cc(O)c4c3=O)[C@H](O)[C@@H](O)[C@@H]2O)[C@H](O)[C@H](O)[C@H]1O` [RUTIN], the Z-SCORE was 0.13.

Molecule `C#C[C@]1(O)CC[C@H]2[C@@H]3CCc4cc(O)ccc4[C@H]3CC[C@@]21C` [ETHYNYLESTRADIOL] gave a Z-SCORE of 0.75.

The molecule `O=C(NCCN1CCOCC1)c1ccc(Cl)cc1` came in with a Z-SCORE of -0.92.

For the molecule `COc1cc(/C=C/c2ccc(O)cc2)cc(OC)c1` [PTEROSTILBENE], the Z-SCORE is listed as -0.71.

As for `COc1ccccc1N1CCN(CC(O)COc2cccc3ccccc23)CC1` (stereo not shown) [NAFTOPIDIL], the Z-SCORE worked out at 0.24.

Consider `CO[C@H]1/C=C/O[C@@]2(C)Oc3c(C)c(O)c4c(c3C2=O)C2=NC3(CCN(CC(C)C)CC3)NC2=C(NC(=O)/C(C)=C\C=C\[C@H](C)[C@H](O)[C@@H](C)[C@@H](O)[C@@H](C)[C@H](OC(C)=O)[C@@H]1C)C4=O` [Rifabutin, reference compound], for which the Z-SCORE was 0.07.

In turn, `O=C([O-])Cc1ccccc1Nc1c(Cl)cccc1Cl.[Na+]` gave a Z-SCORE of 0.02.

Staying with this assay, now noted: compounds at 10 μM, 24 h; PC12 split TEV assay cells co-cultured with Nrg1-expressing PC12 cells; analysed with cellHTS2.
In turn, `CC/C(=C(\c1ccccc1)c1ccc(OCCN(C)C)cc1)c1ccccc1` [Tamoxifen, reference compound] displayed a Z-SCORE of 1.48.

`NS(=O)(=O)Cc1noc2ccccc12` [Zonisamide, reference compound] displayed a Z-SCORE of -0.47.

On to `C#C[C@]1(O)CC[C@H]2[C@@H]3CCC4=CC(=O)CC[C@@H]4[C@H]3CC[C@@]21C` [19-Norethindrone, reference compound], for which the Z-SCORE is listed as 0.63.

With `O=C(c1ccc(OCCN2CCCCC2)cc1)c1c(-c2ccc(O)cc2)sc2cc(O)ccc12` [Evista, reference compound], the Z-SCORE was 1.2.

In turn, `C#C[C@]1(O)CC[C@H]2[C@@H]3CCC4=Cc5oncc5C[C@]4(C)[C@H]3CC[C@@]21C` [DANAZOL, reference compound] came in with a Z-SCORE of -0.3.

In the case of `Clc1ccc2nsnc2c1NC1=NCCN1` [Tizanidine hydrochloride, reference compound], the Z-SCORE is given as -0.96.

The molecule `CC(C)Cc1ccc(C(C)C(=O)O)cc1` (stereo not shown) [IBUPROFEN, reference compound] came in with a Z-SCORE of 0.27.

`CC(C)C(=O)Nc1ccc([N+](=O)[O-])c(C(F)(F)F)c1` [FLUTAMIDE, reference compound] yielded a Z-SCORE of 0.85.

The molecule `CC(C)NCC(O)COc1cccc2ccccc12` (stereo not shown) [Inderal, reference compound] had a Z-SCORE of -0.81.

In turn, `CN(C)CCOC(c1ccc(Cl)cc1)c1ccccn1` (stereo not shown) [Carbinoxamine Maleate, reference compound] returned a Z-SCORE of -0.31.

`CO[C@H]1/C=C/O[C@@]2(C)Oc3c(C)c(O)c4c(c3C2=O)C2=NC3(CCN(CC(C)C)CC3)NC2=C(NC(=O)/C(C)=C\C=C\[C@H](C)[C@H](O)[C@@H](C)[C@@H](O)[C@@H](C)[C@H](OC(C)=O)[C@@H]1C)C4=O` [Rifabutin, reference compound] returned a Z-SCORE of -1.04.

In the case of `N[C@@H](Cc1cc(I)c(Oc2cc(I)c(O)c(I)c2)c(I)c1)C(=O)O` [L-THYROXINE, reference compound], the Z-SCORE is -0.07.

Values taken from PMC5653977 (EMBO Molecular Medicine, 2017).
